Literature values, collected in patent publication US11142559B2, “Glucagon derivative, conjugate thereof, composition comprising same, and therapeutic use thereof” (HANMI PHARM. CO., LTD, priority 2016, dated 2021).

Conditions: when taken for one year, according to a report

In the case of `CCCCCCCCCCC[C@@H](C[C@@H]1OC(=O)[C@H]1CCCCCC)OC(=O)[C@H](CC(C)C)NC=O` [Orlistat], the weight loss is given as “about 4 kg”.
